According to ChEMBL document CHEMBL1157904, “Discovery of pyrazolthiazoles as novel and potent inhibitors of bacterial gyrase” (Bioorg Med Chem Lett, 2010):
Values after ≈ are worked out from the molar mass of the structure shown. Active and inactive are the calls of the source. No cut-off for these calls is given here.

Tests used:
[1] = tested on: Escherichia coli; assay: Antibacterial activity against wild type Escherichia coli; type: functional
[2] = tested on: Streptococcus pneumoniae; assay: Antibacterial activity against wild type Streptococcus pneumoniae; type: functional
[3] = Inhibition of ATPase activity of Escherichia coli DNA gyrase B
[4] = tested on: Staphylococcus aureus; assay: Antibacterial activity against wild type Staphylococcus aureus; type: functional
[5] = tested on: Escherichia coli; assay: Antibacterial activity against tol C pump knockout Escherichia coli CAG12184; type: functional
[6] = tested on: Staphylococcus aureus; assay: Antibacterial activity against Staphylococcus aureus ATCC 29213; type: functional
[7] = tested on: Streptococcus pneumoniae; assay: Antibacterial activity against Streptococcus pneumoniae ATCC 10015; type: functional
[8] = Selectivity ratio of Ki for Escherichia coli DNA gyraseB to Ki for Staphylococcus aureus DNA gyraseB
[9] = (§1) Inhibition of ATPase activity of Staphylococcus aureus DNA gyrase B
[10] = tested on: Staphylococcus aureus; assay: as §1

Structure (SMILES)	Ki [3]	MIC [5]	other results
CCOC(=O)c1cc(-c2sc(-c3ccccc3)nc2N2CCCCC2)n[nH]1	210 nM	–	MIC [1]: > 64 µg/mL; MIC [2]: > 64 µg/mL; MIC [4]: > 64 µg/mL
CCOC(=O)c1cc(-c2sc(-c3cccnc3)nc2N2CCC(C)CC2)n[nH]1	1050 nM	–	MIC [1]: > 64 µg/mL; MIC [2]: > 64 µg/mL; MIC [4]: > 64 µg/mL
CCNC(=O)c1cc(-c2sc(-c3cccnc3)nc2-c2ccc(Cl)cc2)n[nH]1	47 nM	8 µg/mL (≈ 19.5 µM)	MIC [6]: 8 µg/mL (≈ 19.5 µM); MIC [7]: 4 µg/mL (≈ 9.76 µM)
C#CCOC(=O)NCc1cc(-c2sc(-c3cccnc3)nc2N2CCCCC2)[nH]n1	11 nM	1 µg/mL (≈ 2.37 µM)	Ratio Ki [8]: 10; Activity [1]: inactive; Ki [9]: 240 nM
CC#CCOC(=O)NCc1cc(-c2sc(-c3cccnc3)nc2C2CCCCC2)n[nH]1	< 4 nM	> 64 µg/mL	Activity [1]: inactive; Ki [9]: 69 nM
CCNC(=O)c1cc(-c2sc(-c3cccnc3)nc2C)n[nH]1	350 nM	> 64 µg/mL	MIC [6]: > 64 µg/mL; MIC [7]: > 64 µg/mL
COC(=O)NCc1cc(-c2sc(-c3cccnc3)nc2N2CCCCC2)n[nH]1	56 nM	> 64 µg/mL	Activity [1]: inactive; Ki [9]: 300 nM
CSc1cc(-c2sc(-c3ccccc3)nc2C)n[nH]1	3500 nM	–	–
CCOC(=O)c1cc(-c2sc(-c3ccccc3)nc2-c2ccccc2)n[nH]1	140 nM	–	–
CC#CCOC(=O)NCc1cc(-c2sc(-c3cccnc3)nc2N2CCCCC2)n[nH]1	< 4 nM	0.5 µg/mL (≈ 1.15 µM)	Activity [1]: inactive; Ki [9]: 140 nM
CCc1cc(-c2sc(-c3cccs3)nc2C)n[nH]1	4800 nM	–	–
CC#CCOC(=O)NCc1cc(-c2sc(-c3cccnc3)nc2COC)n[nH]1	14 nM	8 µg/mL (≈ 20.1 µM)	Activity [1]: inactive; Ki [9]: 1100 nM
CCOC(=O)c1cc(-c2sc(-c3cccnc3)nc2C2CCCCC2)n[nH]1	120 nM	–	–
CCNC(=O)c1cc(-c2sc(-c3cccnc3)nc2[C@H]2CCCCN2)n[nH]1	3400 nM	> 64 µg/mL	MIC [6]: > 64 µg/mL; MIC [7]: > 64 µg/mL; inhibition [10]: Active
CCNC(=O)c1cc(-c2sc(-c3cccnc3)nc2C2CCCCC2)n[nH]1	62 nM	16 µg/mL (≈ 41.9 µM)	–
CCNC(=O)c1cc(-c2sc(-c3cccnc3)nc2N2CCCCC2)n[nH]1	90 nM	32 µg/mL (≈ 83.7 µM)	–
COC(=O)NCc1cc(-c2sc(-c3ccccc3)nc2N2CCC(O)CC2)[nH]n1	1080 nM	> 64 µg/mL	Activity [1]: inactive
CCOC(=O)c1cc(-c2sc(-c3cccs3)nc2C)n[nH]1	2600 nM	–	–
CCCc1nc(-c2ccccc2)sc1-c1cc(C(=O)OCC)[nH]n1	800 nM	–	–
CCOC(=O)c1cc(-c2sc(-c3ccccc3)nc2C)n[nH]1	1700 nM	–	–
CSc1cc(-c2sc(-c3cccs3)nc2C)[nH]n1	2900 nM	–	–
CCOC(=O)c1cc(-c2sc(-c3cccnc3)nc2C)n[nH]1	330 nM	–	–
CCOC(=O)c1cc(-c2sc(-c3cccnc3)nc2-c2ccccc2)n[nH]1	70 nM	–	–
CCNC(=O)c1cc(-c2sc(-c3cccnc3)nc2[C@@H]2CCCN2)n[nH]1	82 nM	32 µg/mL (≈ 86.8 µM)	–
CCOC(=O)c1cc(-c2sc(-c3cccnc3)nc2C2CC2)n[nH]1	240 nM	–	–
CCOC(=O)c1cc(-c2sc(-c3cccnc3)nc2CO)n[nH]1	670 nM	–	MIC [1]: > 64 µg/mL; MIC [2]: > 64 µg/mL; MIC [4]: > 64 µg/mL
CCNC(=O)c1cc(-c2sc(-c3cccnc3)nc2[C@@H]2CCCCN2)n[nH]1	40 nM	48 µg/mL (≈ 125 µM)	MIC [6]: 32 µg/mL (≈ 83.7 µM); MIC [7]: 1.5 µg/mL (≈ 3.92 µM); inhibition [10]: Active
CCOC(=O)c1cc(-c2sc(-c3ccccc3)nc2N2CCOCC2)n[nH]1	630 nM	–	MIC [1]: > 64 µg/mL; MIC [2]: > 64 µg/mL; MIC [4]: > 64 µg/mL
CCOC(=O)c1cc(-c2sc(-c3cccnc3)nc2COC)n[nH]1	280 nM	–	MIC [1]: > 64 µg/mL; MIC [2]: > 64 µg/mL; MIC [4]: > 64 µg/mL
CCNC(=O)c1cc(-c2sc(-c3cccnc3)nc2-c2ccccc2)n[nH]1	45 nM	4 µg/mL (≈ 10.7 µM)	MIC [6]: 8 µg/mL (≈ 21.3 µM); MIC [7]: 2 µg/mL (≈ 5.33 µM); inhibition [10]: Active
